Where “and” joins values, the source holds several entries; their conditions need not be identical. Equal entries are not always repeated. Structures can show the parent of a compound that is named as a salt.
Key:
RSV A2 [1] = experiment: Quantification of infectious virus production (plaque assay); assay type: cell-based, Respiratory syncytial virus; conditions: Fig 3B; atorvastatin 3.5 uM, simvastatin 1.5 uM; supernatants of RSV A2-infected HEp-2; replicate values
Method: HEp-2 cells were seeded to six-well plates at a density of 1 × 10^6 cells per well and incubated overnight at 37 °C/5% CO2. The following morning, cells were infected with RSV A2 (MOI 1.0) and treated with drugs 2 h post-viral exposure. The supernatant, containing progeny virions, was collected 48 h p.i., snap frozen, and stored at −80 °C. Quantification of infectious virus particles was performed by a traditional plaque assay. HEp-2 cells were seeded to six-well plates at a density of 1.5 × 10^6 cells per well and grown to 90% confluency. Cells were incubated with serial dilutions of the collected supernatants for 90 min at 37 °C/5% CO2 under frequent agitation. The inoculant was then removed and replaced with 4 mL of 1:1 4% FBS DMEM-F12/1% agarose. Plates were incubated for 5 days at 37 °C/5% CO2. Cells were then fixed with 10% formalin for 30 min at room temperature. After fixation and removal of agarose from each well, the cells were stained with 0.05% neutral red and plaques were quantified under a dissecting microscope.

RSV A2 [2] = experiment: Immunofluorescence staining and microscopy of RSV F and N;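 for RSV N intensity (a.u.): fluorescence normalized to total nuclear count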
Method: HEp-2 cells were seeded to No. 1 glass coverslips (1014355117NR1, Thermo Fisher Scientific) for high-resolution confocal microscopy, or black, flat, microclear-bottom 96-well plates (655096, Greiner Bio-One) for high-throughput quantification of RSV F and N immunofluorescence. Cells were infected with RSV A2 (MOI 0.5). At 48 h p.i., cells were fixed in 4% paraformaldehyde for 30 min and permeabilized with 0.3% Triton X-100 for 10 min at room temperature. F and N proteins were probed using mouse anti-RSV F (RSV3216) and mouse anti-RSV N (RSV3132) mAbs (Bio-Rad Antibodies) diluted 1:500 in PBS + 0.1% Tween-20 (PBST), or mouse anti-RSV F mAb Alexa Fluor 488 conjugate (Millipore Sigma, 133/1H) diluted 1:200 in PBST over a 1-h incubation at room temperature. This was followed by detection with secondary anti-mouse Fab fragments conjugated to Alexa Fluor 488 (4408) or 647 (4410) (Cell Signaling Technology) diluted 1:1000 in PBST over a 1-h incubation at room temperature. Fluorescent images were acquired using either the Cellomics ArrayScan VTI HCS Reader at ×10 magnification (for quantification) or Olympus IX81 Spinning Disk Confocal microscope at ×60 magnification with oil immersion (for high-resolution images). F and N immunofluorescence was quantified in CellProfiler and normalized to total nuclear count.

RSV A2 [3] = experiment: Western blot of total viral protein levels (pan-RSV antibody); assay type: cell-based, Respiratory syncytial virus; conditions: 24 h p.i.
Method: Prior studies in HEp-2 cells have shown that RSV mRNA and proteins can be detected 4–6 h p.i., while assembly is initiated roughly 10–12 h p.i., and mature viral filaments can be observed at the cell surface 16–18 h p.i.[26]–[28]. […] To verify this finding, a traditional plaque assay was performed to quantify infectious virus production from the supernatants of statin-treated RSV A2-infected HEp-2 cells. […] Lysates were also collected from RSV A2-infected HEp-2 cells (MOI 0.5) 24 h p.i. to probe viral protein expression by western blot. […] Changes to the expression and localization of the viral fusion glycoprotein (F) and nucleoprotein (N) were visualized by high-resolution confocal microscopy.
Box plots indicate the complete range (whiskers), interquartile range (box), and median (line) of measurements. […] Blots were stained using a pan-RSV polyclonal antibody (B65860G) that detects all viral antigens (see Supplementary Fig. 2). GAPDH controls were processed on a parallel blot with the same samples and protein load. Values are reported as means ± SEM (n = 3 cell lysates). d High-resolution confocal microscopy of the F (green) and N (magenta) proteins in RSV A2-infected HEp-2 cells (MOI 0.5). […] Scale bars = 20 µm. Statistics were calculated by a one-way ANOVA with a Dunnett’s multiple comparisons post hoc test (*P < 0.05, ***P < 0.001, ****P < 0.0001).
Supplementary Figure 2. Changes to viralprotein expression by statin or Rho GTPase inhibitor treatment. HEp-2 cells were infected with […]
post-viralexposure. Cell lysates were collected 24 h p.i.and viralprotein expression was probed using a pan-RSV polyclonal antibody (B65860G) which detects allviralantigens (n ≥2 cell lysates).GAPDH controlswere processed on parallelblots withthe same samples and protein load. […]

RSV-GFP [4] = experiment: microbe, parasite or virus in culture; assay type: cell-based, Respiratory syncytial virus
Outline: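 Cells infected with RSV-GFP (MOI 0.5) for 90 min in serum-free medium; library compounds added within 1 h of infection at 10 µM final (0.1% DMSO). At 48 h p.i., infection rate was imaged as fraction of nuclei within GFP area, with mean nuclear intensity and size serving as the viability measure.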

RSV-GFP [5] = assay type: cell-based, Respiratory syncytial virus
Method: WD-PNECs were cultured as per the referenced protocol. Using a sterile cytology brush, nasal scrapings were obtained from healthy volunteers with no known history of lung disease or respiratory medication use. Cells were then seeded on a collagen-coated flask and maintained in Bronchial Epithelial Cell Growth Medium (BEGM) (CC-3170, Lonza) or PneumaCult-Ex (05008, […] Technologies). Upon reaching 70% confluency, cells were passaged and seeded on collagen-coated transwell inserts (6.5 mm diameter, 0.4 µm pore size) (3413, Corning). An air–liquid interface was generated by removing media on the apical side of the cells and replacing the remaining media with PneumaCult-ALI media (05001, […] Technologies). By week 3, cells were differentiated with a ciliated phenotype. Transepithelial resistance was quantified using an ohmmeter (World Precision Instruments) to evaluate epithelial barrier function prior to experimentation. Cells were apically infected with RSV-GFP (MOI 0.01) and infection rates were quantified from GFP signal.

Q: With CC(C)c1c(C(=O)Nc2ccccc2)c(-c2ccccc2)c(-c2ccc(F)cc2)n1CC[C@@H](O)C[C@@H](O)CC(=O)O [Atorvastatin, Atorvastatin calcium salt trihydrate] as the compound, how does the “Virus titre (log10 PFU/mL)” value (RSV A2 [1]) read?
A: 4.38 log10 PFU/mL and 4.4624 log10 PFU/mL and 4.176 log10 PFU/mL and 4.322 log10 PFU/mL

Q: What about the “RSV N intensity (a.u.)” value (RSV A2 [2]; Fig 5C, statin alone: atorvastatin 3.5 uM, simvastatin 1.5 uM) of the same compound?
A: 0.7327 a.u. and 0.5028 a.u. and 0.4468 a.u. and 0.7381 a.u.

Q: And the “effect of atorvastatin co-treatment with CN04” value (RSV A2 [2]; atorvastatin 3.5 µM with CN04 1.0 µM)?
A: negated the pro-viral effects of Rho GTPase activation

Q: What about the “Total viral protein levels (GAPDH normalized)” value (RSV A2 [3]; MOI 0.5, atorvastatin 3.5 uM, simvastatin 1.5 uM, one value per lysate) of the same compound?
A: 1.385 and 1.458 and 1.299

Q: And the “total viral protein levels by western blot” value (RSV A2 [3]; atorvastatin 3.5 µM, simvastatin 1.5 µM, EHT 1864 20.0 µM)?
A: decrease in total viral protein levels

Q: What about the “RSV inhibition in the screen” value (RSV-GFP [4]; HEp-2, RSV-GFP) of the same compound?
A: inhibit RSV at low micromolar concentrations

Q: And the inhibition at 10 µM (RSV-GFP [4]; human respiratory syncytial virus, HEp-2, read-out: RSV-GFP inhibition (%))?
A: 56.4%

Q: What about the “reduction of RSV-GFP infection” value (RSV-GFP [5]; atorvastatin 5.0 µM, 72 h post-infection, mean ± SEM) of the same compound?
A: 67.4 ± 11.5%

Q: What about the “cellular viability of PNECs” value (RSV-GFP [5]; microscopic appearance and barrier integrity) of the same compound?
A: Cellular viability remained intact
